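Growth conditions: 96-well plates. Treatment: test compound, 48 hours, 5 concentrations. Analysis: linear interpolation between bracketing concentrations; unreached endpoints set to highest concentration. GI50: concentration for 50% inhibition of growth.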 Calls of active or inactive are those of the source. Cut-off read from the data, not from the text of the source: active = GI50 up to about 1.1 µM and inactive = higher.
Legend:
Test in all cases: NCI tumour cell line growth inhibition, 48 h
M14 = system: M14
MOLT-4 = system: MOLT-4
SNB-19 = system: SNB-19
M19-MEL = system: M19-MEL
DLD-1 = system: DLD-1
SF-268 = system: SF-268
TK-10 = system: TK-10
DMS-273 = system: DMS-273
KM12 = system: KM12
NCI-H226 = system: NCI-H226
NCI-H23 = system: NCI-H23
HT-29 = system: HT-29
NCI-H460 = system: NCI-H460
ACHN = system: ACHN
SK-MEL-28 = system: SK-MEL-28
SW-620 = system: SW-620
SN12C = system: SN12C
RXF 631 = system: RXF 631
OVCAR-5 = system: OVCAR-5
SK-OV-3 = system: SK-OV-3
EKVX = system: EKVX
SK-MEL-5 = system: SK-MEL-5
K562 = system: K562
SF-539 = system: SF-539
COLO 205 = system: COLO 205
NCI-H522 = system: NCI-H522
OVCAR-8 = system: OVCAR-8
SK-MEL-2 = system: SK-MEL-2
KM-20L2 = system: KM-20L2
SNB-78 = system: SNB-78
HOP-62 = system: HOP-62
IGROV-1 = system: IGROV-1
A498 = system: A498
UACC-62 = system: UACC-62
786-0 = system: 786-0
SNB-75 = system: SNB-75
RPMI-8226 = system: RPMI-8226
SR = system: SR
LXFL 529 = system: LXFL 529
CCRF-CEM = system: CCRF-CEM
HOP-92 = system: HOP-92
HCT-116 = system: HCT-116
HCT-15 = system: HCT-15
U-251 = system: U-251
OVCAR-3 = system: OVCAR-3
Malme-3M = system: Malme-3M
XF498 = system: XF498
A549 = system: A549
CAKI-1 = system: CAKI-1
DMS-114 = system: DMS-114
OVCAR-4 = system: OVCAR-4
UACC-257 = system: UACC-257
SF-295 = system: SF-295
UO-31 = system: UO-31
LOX IMVI = system: LOX IMVI
HL-60 = system: HL-60
RXF 393 = system: RXF 393
HCC 2998 = system: HCC 2998
HOP-18 = system: HOP-18

In the case of `CC(=O)N/C(=C\c1ccc(/C=C(\NC(C)=O)c2nc3cc(Cl)ccc3[nH]2)cc1)c1nc2ccccc2[nH]1`, the GI50 (M14) is reported as > 100 µM (inactive), the GI50 (MOLT-4) is reported as > 100 µM (inactive) and the GI50 (SNB-19) is reported as > 100 µM (inactive). For the same compound, the GI50 (M19-MEL) was > 100 µM (inactive), the GI50 (DLD-1) was > 100 µM (inactive) and the GI50 (SF-268) was > 100 µM (inactive). For the same compound, the GI50 (TK-10) was > 100 µM (inactive), the GI50 (DMS-273) was > 100 µM (inactive) and the GI50 (KM12) was > 100 µM (inactive). The GI50 (NCI-H226) was > 100 µM (inactive), the GI50 (NCI-H23) was > 100 µM (inactive) and the GI50 (HT-29) was > 100 µM (inactive). For the same compound, the GI50 (NCI-H460) was > 100 µM (inactive), the GI50 (ACHN) was > 100 µM (inactive) and the GI50 (SK-MEL-28) was > 100 µM (inactive). The GI50 (SW-620) was > 100 µM (inactive), the GI50 (SN12C) was > 100 µM (inactive) and the GI50 (RXF 631) was > 100 µM (inactive). The GI50 (OVCAR-5) was > 100 µM (inactive), the GI50 (SK-OV-3) was > 100 µM (inactive) and the GI50 (EKVX) was > 100 µM (inactive). For the same compound, the GI50 (SK-MEL-5) was > 100 µM (inactive), the GI50 (K562) was > 100 µM (inactive) and the GI50 (SF-539) was > 100 µM (inactive). The GI50 (COLO 205) was > 100 µM (inactive), the GI50 (NCI-H522) was > 100 µM (inactive) and the GI50 (OVCAR-8) was > 100 µM (inactive). The GI50 (SK-MEL-2) was > 100 µM (inactive), the GI50 (KM-20L2) was > 100 µM (inactive) and the GI50 (SNB-78) was > 100 µM (inactive). The GI50 (HOP-62) was > 100 µM (inactive), the GI50 (IGROV-1) was > 100 µM (inactive) and the GI50 (A498) was > 100 µM (inactive). The GI50 (UACC-62) was > 100 µM (inactive), the GI50 (786-0) was > 100 µM (inactive) and the GI50 (SNB-75) was > 100 µM (inactive). For the same compound, the GI50 (RPMI-8226) was > 100 µM (inactive), the GI50 (SR) was > 100 µM (inactive) and the GI50 (LXFL 529) was > 100 µM (inactive). The GI50 (CCRF-CEM) was > 100 µM (inactive), the GI50 (HOP-92) was > 100 µM (inactive) and the GI50 (HCT-116) was > 100 µM (inactive). For the same compound, the GI50 (HCT-15) was over 100 µM, the GI50 (U-251) was > 100 µM (inactive) and the GI50 (OVCAR-3) was > 100 µM (inactive). The GI50 (Malme-3M) was > 100 µM (inactive), the GI50 (XF498) was > 100 µM (inactive) and the GI50 (A549) was > 100 µM (inactive). For the same compound, the GI50 (CAKI-1) was > 100 µM (inactive) and the GI50 (DMS-114) was > 100 µM (inactive).
For `OC(c1ccccc1)C1CC2C=CC1C2` (stereo unspecified), the GI50 (M14) was > 100 µM (inactive), the GI50 (MOLT-4) was > 100 µM (inactive) and the GI50 (OVCAR-4) was > 100 µM (inactive). The GI50 (SNB-19) was > 100 µM (inactive), the GI50 (M19-MEL) was > 100 µM (inactive) and the GI50 (DLD-1) was > 100 µM (inactive). For the same compound, the GI50 (SF-268) was > 100 µM (inactive), the GI50 (TK-10) was > 100 µM (inactive) and the GI50 (DMS-273) was > 100 µM (inactive). The GI50 (UACC-257) was > 100 µM (inactive), the GI50 (KM12) was > 100 µM (inactive) and the GI50 (SF-295) was > 100 µM (inactive). For the same compound, the GI50 (NCI-H23) was > 100 µM (inactive), the GI50 (HT-29) was > 100 µM (inactive) and the GI50 (NCI-H460) was > 100 µM (inactive). The GI50 (UO-31) was > 100 µM (inactive), the GI50 (ACHN) was > 100 µM (inactive) and the GI50 (SK-MEL-28) was > 100 µM (inactive). The GI50 (SW-620) was > 100 µM (inactive), the GI50 (SN12C) was > 100 µM (inactive) and the GI50 (RXF 631) was > 100 µM (inactive). For the same compound, the GI50 (OVCAR-5) was > 100 µM (inactive), the GI50 (SK-OV-3) was > 100 µM (inactive) and the GI50 (EKVX) was > 100 µM (inactive). For the same compound, the GI50 (SK-MEL-5) was > 100 µM (inactive), the GI50 (K562) was > 100 µM (inactive) and the GI50 (SF-539) was > 100 µM (inactive). For the same compound, the GI50 (LOX IMVI) was > 100 µM (inactive), the GI50 (COLO 205) was > 100 µM (inactive) and the GI50 (NCI-H522) was > 100 µM (inactive). For the same compound, the GI50 (OVCAR-8) was > 100 µM (inactive), the GI50 (SK-MEL-2) was > 100 µM (inactive) and the GI50 (SNB-78) was > 100 µM (inactive). The GI50 (HOP-62) was > 100 µM (inactive), the GI50 (IGROV-1) was > 100 µM (inactive) and the GI50 (A498) was > 100 µM (inactive). The GI50 (UACC-62) was > 100 µM (inactive), the GI50 (SNB-75) was > 100 µM (inactive) and the GI50 (HL-60) was > 100 µM (inactive). The GI50 (RPMI-8226) was > 100 µM (inactive), the GI50 (LXFL 529) was > 100 µM (inactive) and the GI50 (CCRF-CEM) was > 100 µM (inactive). For the same compound, the GI50 (RXF 393) was > 100 µM (inactive), the GI50 (HOP-92) was > 100 µM (inactive) and the GI50 (HCT-116) was > 100 µM (inactive). The GI50 (HCT-15) was over 100 µM, the GI50 (U-251) was > 100 µM (inactive) and the GI50 (OVCAR-3) was > 100 µM (inactive). The GI50 (Malme-3M) was > 100 µM (inactive), the GI50 (XF498) was > 100 µM (inactive) and the GI50 (A549) was > 100 µM (inactive). For the same compound, the GI50 (CAKI-1) was > 100 µM (inactive) and the GI50 (DMS-114) was > 100 µM (inactive).
In the case of `COc1cc(C(=O)C/C(CCC(=O)Nc2ccccc2[N+](=O)[O-])=N\NC(=O)CC#N)ccc1O`, the GI50 (M14) is reported as > 100 µM (inactive), the GI50 (MOLT-4) is reported as > 100 µM (inactive) and the GI50 (OVCAR-4) is reported as > 100 µM (inactive). The GI50 (SNB-19) was > 100 µM (inactive), the GI50 (M19-MEL) was > 100 µM (inactive) and the GI50 (DLD-1) was > 100 µM (inactive). For the same compound, the GI50 (SF-268) was > 100 µM (inactive), the GI50 (TK-10) was > 100 µM (inactive) and the GI50 (DMS-273) was > 100 µM (inactive). For the same compound, the GI50 (UACC-257) was > 100 µM (inactive), the GI50 (KM12) was > 100 µM (inactive) and the GI50 (NCI-H226) was > 100 µM (inactive). The GI50 (SF-295) was > 100 µM (inactive), the GI50 (HCC 2998) was > 100 µM (inactive) and the GI50 (NCI-H23) was > 100 µM (inactive). The GI50 (HT-29) was > 100 µM (inactive), the GI50 (NCI-H460) was > 100 µM (inactive) and the GI50 (UO-31) was > 100 µM (inactive). The GI50 (ACHN) was > 100 µM (inactive), the GI50 (SK-MEL-28) was > 100 µM (inactive) and the GI50 (SW-620) was > 100 µM (inactive). The GI50 (SN12C) was > 100 µM (inactive), the GI50 (RXF 631) was > 100 µM (inactive) and the GI50 (OVCAR-5) was > 100 µM (inactive). The GI50 (SK-OV-3) was > 100 µM (inactive), the GI50 (EKVX) was > 100 µM (inactive) and the GI50 (SK-MEL-5) was > 100 µM (inactive). For the same compound, the GI50 (K562) was > 100 µM (inactive), the GI50 (SF-539) was > 100 µM (inactive) and the GI50 (LOX IMVI) was > 100 µM (inactive). For the same compound, the GI50 (COLO 205) was > 100 µM (inactive), the GI50 (NCI-H522) was > 100 µM (inactive) and the GI50 (OVCAR-8) was > 100 µM (inactive). For the same compound, the GI50 (SK-MEL-2) was > 100 µM (inactive), the GI50 (KM-20L2) was > 100 µM (inactive) and the GI50 (HOP-62) was > 100 µM (inactive). The GI50 (IGROV-1) was > 100 µM (inactive), the GI50 (A498) was 40.7 µM (inactive) and the GI50 (UACC-62) was > 100 µM (inactive). The GI50 (786-0) was > 100 µM (inactive), the GI50 (SNB-75) was 49.1 µM (inactive) and the GI50 (HL-60) was > 100 µM (inactive). The GI50 (HOP-18) was > 100 µM (inactive), the GI50 (RPMI-8226) was > 100 µM (inactive) and the GI50 (LXFL 529) was > 100 µM (inactive). For the same compound, the GI50 (CCRF-CEM) was > 100 µM (inactive), the GI50 (RXF 393) was > 100 µM (inactive) and the GI50 (HCT-15) was over 100 µM. The GI50 (OVCAR-3) was > 100 µM (inactive), the GI50 (Malme-3M) was > 100 µM (inactive) and the GI50 (XF498) was > 100 µM (inactive). For the same compound, the GI50 (A549) was > 100 µM (inactive) and the GI50 (CAKI-1) was > 100 µM (inactive).

Source: ChEMBL document CHEMBL1201862, “PubChem BioAssay data set” (2004)
